“Also recorded” adds a separate entry of the source.
What was measured:
[1] = system: isolated ventricular myocytes; assay: Myocyte Ca2+ transient and cytosolic Ca2+ measurement; type: cell-based, mouse
Protocol: Isolation of ventricular myocytes—Hearts from WT mice (12-week old) were perfused on the Langendorff system with a modified Krebs-Henseleit buffer (KHB) composed of (mM) NaCl 118, KCl 5.4, HEPES 10, NaH2PO4 0.33, MgCl2 2, glucose 10, taurine 30, butanedione monoxime 10 (pH=7.4). Then an enzyme solution (KHB containing 0.7 mg/ml type II collagenase, 0.1% BSA and 25 μM CaCl2) was used to digest the hearts for 10 min. Finally, ventricles of the hearts were excised, minced and filtered to obtain isolated cells. After sufficient sedimentation, the supernatant was removed and the cells were resuspended.
Myocyte Ca^2+ transient and cytosolic Ca^2+ measurement—Myocytes were loaded with Fluo-4 acetoxymethyl ester (7 μM) for 20 min at room temperature, followed by a 10 min wash with Tyrode's solution, and then placed onto a plexiglass chamber for recording. For Ca^2+ transient measurements, myocytes were excited under 0.5 Hz and 3 Hz field stimulation, and the fluorescence signals were obtained using a Nikon TE 2000 microscope and collected through an InCyt Standard photometry system. For cytosolic Ca^2+ analysis in quiescent myocytes, a Zeiss LSM 510 confocal microscope was used to record fluorescent images from resting myocytes. Line-scan mode was applied at 3.07 ms intervals with 512 pixels spaced at 0.056 μm. Drugs were dissolved in Tyrode's solution and perfused into the chamber. Images of myocytes were recorded every 30 s after drug application. Data analysis was performed using Clampfit 9.2 and Image J 1.44 software.
Water soluble probenecid was used for all of the myocyte experiments.

[2] = system: isolated ventricular myocytes; assay: Myocyte contractility measurement; type: cell-based, mouse
Protocol: Isolation of ventricular myocytes—Hearts from WT mice (12-week old) were perfused on the Langendorff system with a modified Krebs-Henseleit buffer (KHB) composed of (mM) NaCl 118, KCl 5.4, HEPES 10, NaH2PO4 0.33, MgCl2 2, glucose 10, taurine 30, butanedione monoxime 10 (pH=7.4). Then an enzyme solution (KHB containing 0.7 mg/ml type II collagenase, 0.1% BSA and 25 μM CaCl2) was used to digest the hearts for 10 min. Finally, ventricles of the hearts were excised, minced and filtered to obtain isolated cells. After sufficient sedimentation, the supernatant was removed and the cells were resuspended. Myocyte contractility measurement—Myocytes were put on a plexiglass chamber containing a Tyrode's solution composed of (mM) NaCl 140, KCl, 5.4, MgCl2 1, CaCl2 1.8, HEPES 5, glucose 10 (pH=7.4). Myocytes were excited under 0.5 Hz field stimulation. After reaching the steady state, myocyte shortening and the rates of shortening (+dL/dt) and relengthening (−dL/dt) were imaged with a CCD camera and monitored by a video-edge detector. Drugs were dissolved in Tyrode's solution and perfused into the chamber. Data were continuously collected through the PCLAMP 9 software. Water soluble probenecid was used for all of the myocyte experiments.

mice subjected to I/R = assay: Probenecid bolus followed by Ischemia/Reperfusion (infarct size, echocardiography); type: in vivo, mouse; conditions: IV pretreatment
Protocol: Ischemia/Reperfusion methods—Mice were anesthetized with sodium pentobarbital and the heart exposed through a left thoracotomy at the level of the fourth intercostal space. The mice were intubated and placed on a mini-ventilator (Harvard apparatus, Holliston, Mass.). A loop occluder was placed around the left anterior descending artery (LAD), and tightened, occluding it for either 30 minutes or 45 minutes. After surgery, the thorocotomy was sutured in layers, and the animal was allowed to recover. […] At twenty-four hours post-I/R, echocardiography was performed and the hearts subsequently removed for determination of infarct size and normalized to the risk region.

TRPV2 = conditions: HEK293 cells, identified 2007; cited from earlier work
mice after I/R injury = assay: Ischemia/Reperfusion followed by oral probenecid (echocardiography); type: in vivo, mouse
Protocol: Ischemia/Reperfusion methods—Mice were anesthetized with sodium pentobarbital and the heart exposed through a left thoracotomy at the level of the fourth intercostal space. The mice were intubated and placed on a mini-ventilator (Harvard apparatus, Holliston, Mass.). A loop occluder was placed around the left anterior descending artery (LAD), and tightened, occluding it for either 30 minutes or 45 minutes. After surgery, the thorocotomy was sutured in layers, and the animal was allowed to recover. Echocardiography methods—All echocardiographic studies were performed as previously described for Example 1.

healthy pig model = assay: Cardiac function by echocardiography in healthy porcine model; type: in vivo
TRPV2^+/− mice = assay: Contractility by echo after IP probenecid in TRPV2+/− mice; type: in vivo, mouse; conditions: 100 mg/kg
Protocol: (§1) WT, TRPV2^+/−, and TRPV2^−/− mice were monitored by echo for 30 minutes after injection as described below. Echocardiography—All echocardiographic studies were performed with a Vevo 2100 Ultrasound system (Visualsonics, Toronto Calif.) with an MS400 probe (30 MHz centerline frequency) and were post-processed at a separate workstation with Vevostrain software (Vevo 2100, v1.1.1 B1455, Visualsonic, Toronto, Canada). Images were obtained from PSLAX and short axis (SAX) views at depths between 2 and 10 mm in both M-mode and B-mode. All studies on mice exposed to I/R injury included M-mode, B-mode in PSLAX and strain imaging in SAX. While for the contractility studies, only M-mode measurements were obtained from the PSLAX. Strain imaging was performed from the B-mode images and regional radial strain and circumferential displacement were measured by regional wall and summed average from the SAX images. From the M-mode images, left ventricular cavity size and wall thickness was measured and the ejection fraction (EF) and fractional shortening (FS) calculations were obtained using the Vevo software. […] In addition, the average change from baseline for each time point between 5 and 30 minutes was determined for each mouse, with measurements being taken every 5 minutes. […]

[3] = system: Langendorff perfused hearts of WT mice; assay: Ex vivo (Langendorff) perfused isolated heart; set-up: species or system mouse; conditions: 10^−6 M perfusion
Protocol: Ex vivo (Langendorff) studies—Isolated heart experiments were performed as previously described on WT mice. […] Measurements were taken every second.

TRPV2^−/− mice = assay: Contractility by echo after IP probenecid in TRPV2−/− mice; type: in vivo, mouse; conditions: 100 mg/kg IP
Protocol: as §1

CCCN(CCC)S(=O)(=O)c1ccc(C(=O)O)cc1 [probenecid]
decay rate (Tau) of Ca2+ transient ([1]; 0.1 μM): not affected
time to peak of cytosolic Ca2+ after treatment ([1]; 0.1 μM): approximately 5 min
Ca2+ spark frequency ([1]; 0.1 μM for 5 minutes, from 1.45±0.09): 2.99±0.24
increase of cytosolic Ca2+ compared to control at steady state ([1]; 0.1 μM, quiescent myocytes): 2.5±0.2 fold
Ca2+ transient amplitude (ΔF/F0) ([1]; 0.1 μM, from 3.35±0.20, P<0.001): 4.25±0.25
increase of myocyte fractional shortening (FS) ([2]; 0.1 μM, 0.5 Hz, room temp, n=6): 30.8±1.4%
myocyte fractional shortening (FS) ([2]; 0.1 μM, 0.5 Hz, room temp, from 6.9% control): 9.0%
myocyte fractional shortening (FS) ([2]; 3 Hz and 32° C., n=4, from 10.1% control): 13.9%
EC50 ([2]; Mus musculus, Ventricular myocyte, isolated ventricular myocytes, averages from 4 mice, read-out: EC50 of dose-response curve on myocyte contractility): 1.6 nM
maximum +dL/dt (rate of shortening) ([2]; room temperature, n=10, from 80.6±12.3): 112.5±16.6 μm/sec
−dL/dt (rate of relengthening) ([2]; room temperature, from 57.7±7.4): 77.6±8.7 μm/sec
systolic function (EF and global circumferential strain), pretreated vs saline (mice subjected to I/R; 30 and 45 minute ischemia): not significantly different; also recorded: no difference
infarct size, pretreated vs saline control (mice subjected to I/R; 30 and 45 minute ischemia, 24 hours of reperfusion): not significantly different; also recorded: no difference
radial displacement of the anterior wall (mice subjected to I/R; 30 minutes ischemia, saline 0.43±0.02): 0.46±0.06 mm
radial displacement of the anterior wall (mice subjected to I/R; 45 minutes ischemia, saline 0.36±0.03): 0.35±0.06 mm
radial displacement, pretreated vs control (mice subjected to I/R; either time point): no difference between the treatment groups
cytosolic Ca2+ in TRPV2-expressing cells (TRPV2): significant increase
radial displacement (mice after I/R injury; oral in water after 45 min I/R, water 0.018±0.018, p<0.05): 0.071±0.013
LV cavity size (LV Vol;d) increase (mice after I/R injury; oral in water after 45 min I/R, water 22.55±4.47, p=0.076): 7.59±6.08
change in EF (mice after I/R injury; oral in water after I/R (FIG. 11D legend)): slight (but not statistically significant) increase in the change in EF
cardiac function (EF) by echocardiography (healthy pig model; bolus of 5 mg/kg IV, 5 mg/kg): rapid increase in EF
cardiac function by echocardiography (healthy pig model; continuous drip 5 mg/kg/hr (first 60 minutes) and 10 mg/kg/hr (second thirty minutes)): improves function; also recorded: improvement in cardiac function
decrease in contractility response versus WT (TRPV2^+/− mice): approximately 50%
change in average +dP/dt over time ([3]; paced 400 bpm): statistically significant from 90 to 210 seconds; also recorded: significantly different from baseline
relaxation (−dP/dt) ([3]; increased from 1812±158, P<0.01): 2309±133
cardiac response (contractility) during 30 minutes of echocardiogram (TRPV2^−/− mice): no discernable cardiac response; also recorded: absolutely no change in function

Reference: patent US10806711B2 (priority 2011, dated 2020)
